Consider seven molecules from patent US11135187B2, “Compositions and methods for treating diabetic retinopathy” (Augusta University Research Institute, Inc., priority 2017, dated 2021).

The test system of one assay is sEH. In words: Western blot of sEH protein in tissues of Ang II-infused mice. Type of assay: in vivo. The protocol: Eight-week-old male B6 mice were treated for 4 weeks with Ang II (3 mg/kg/day, s.c.; […]; Cayman), Ang II (Sigma), or vehicle. […]. The expression of albumin, ICAM-1, IL-6, GADPH, GLUT-1, and sEH was analyzed by homogenization of tissues or cells. Samples from mice in different treatments as well as human retinal endothelial cells (HRECs) were separated by electrophoresis for 3 h. The proteins were transferred to an enhanced chemiluminescence (ECL) membrane in a transfer buffer. The membranes were blocked for 90 min with 5% nonfat dry milk in Tris-buffered saline. The membranes were incubated with antibody against albumin (1:5000; Bethyl), ICAM-1 (1:2000; Cell Signaling), IL-6 (1:2000; Santa Cruz), GADPH (1:2000; abeam), GLUT-1 (1:10,000; abeam), or sEH (1:500; Santa. Cruz). The membranes were incubated with secondary antibody for albumin, ICAM-1, IL-6, GADPH, GLUT-1, or sEH. Chemiluminescent detection using ECL reagent from Millipore Corporation was done on X-ray film. In addition, quantification of the expression levels of these proteins was analyzed with NIH image J software.
Male mice were treated for 4 weeks with Ang II (3 mg/kg/day, s.c.; Alzet)+telmisartan, a selective AT1 antagonist (2.5 mg/kg/day in drinking water; Cayman), Ang II, or vehicle.
(§1) The expression of albumin, ICAM-1, IL-6, GADPH, GLUT-1, and sEH was analyzed by homogenization of tissues or cells. Samples from mice in different treatments as well as human retinal endothelial cells (HRECs) were separated by electrophoresis for 3 h. The proteins were transferred to an enhanced chemiluminescence (ECL) membrane in a transfer buffer. The membranes were blocked for 90 min with 5% nonfat dry milk in Tris-buffered saline. The membranes were incubated with antibody against albumin (1:5000; Bethyl), ICAM-1 (1:2000; Cell Signaling), IL-6 (1:2000; Santa Cruz), GADPH (1:2000; abcam), GLUT-1 (1:10,000; abcam), or sEH (1:500; Santa Cruz). The membranes were incubated with secondary antibody for albumin, ICAM-1, IL-6, GADPH, GLUT-1, or sEH. Chemiluminescent detection using ECL reagent from Millipore Corporation was done on X-ray film. In addition, quantification of the expression levels of these proteins was analyzed with NIH image J software.

Assay [1] is described as follows: blood glucose levels in diabetic mice. It is filed as in vivo. The settings on record: diabetic mice + Ang II; vs. 483±122 without treatment; not affected. The protocol:
(§2) One week after mice developed diabetes, diabetic and control mice were assigned to the following groups: Ang II (intravitreal injection with 5 μg/1 μL of Ang II); diabetes+Ang II; diabetes+Ang II+11,12-EET (15 μg/kg/day, s.c.; Alzet); diabetes+Ang II+MS-PPOH (CAS No. 206052-02-0-(N-methylsulfonyl-6-(2-propargyloxyphenyl)hexanamide, a selective EETs blocker; 20 mg/kg/day, i.p); and control. 11,12-EET was used because it potentiates intravitreal Ang II-induced retinal damage (FIGS. 4A-4C); also, MS-PPOH was used in a previous study (Huang, H., Exp Biol Med (Maywood), 231:1744-1752 (2006)).

For assay [2], the system named is albumin. In words: intravitreal Ang II-induced retinal albumin leakage. The note with it: for intravitreal Ang II-induced retinal albumin leakage: EET 15 μg/kg/day s.c., Ang II intravitreal on day 3, leakage significant only with 11,12-EET. Type of assay: in vivo, mice. The protocol: B6 Mice were injected mice with Ang II (1 or 5 μg per eye) or vehicle assayed for albumin leakage. The expression of albumin was used as the index of leakage assay. Mice were treated with 11, 12-EET (15 μg/kg/day, s.c.; Alzet: Cayman), 14,15-EET (15 μg/kg/day, s.c.; Alzet; Cayman), or vehicle. 11,12-EET and 14,15-EET were used because they are the major products of cytochrome P450 (CYP) epoxygenases. On day 3 after treatment, mice were intravitreally injected with Ang II (5 μg/μl).

The subject of assay [3] is albumin. Briefly: intravitreal Ang II-induced retinal albumin leakage in diabetic mice. It is filed as in vivo. The note with it: for intravitreal Ang II-induced retinal albumin leakage in diabetic mice: 11,12-EET 15 μg/kg/day s.c., MS-PPOH 20 mg/kg/day i.p. The protocol:
as §2

The test system of assay [4] is albumin. Briefly: intravitreal hVEGF-induced retinal albumin leakage. It is filed as in vivo. The settings on record: 11,12-EET 15 μg/kg/day s.c. one week; sEH KO vs sEH (+/+) mice. The protocol: sEH (−/−) and sEH (+/+) mice were treated with 11, 12-EET (15 μg/kg/day, s.c.; Alzet) or a vehicle for one week, then injected with hVEGF.
Another assay concerns GLUT-1. Briefly: GLUT-1 expression in HRECs under HG and hypoxia. It is filed as cell-based, human. The note with it: HG (25 mM D-Glucose) + CO (CoCl2 hypoxia). The method, then:
as §1, with “(1:2000; abeam),” for “(1:2000; abcam),”, “(1:10,000; abeam),” for “(1:10,000; abcam),”, “(1:500; Santa.” for “(1:500; Santa”
Methods and Materials HRECs were subjected to L-glucose (osmotic control), L-Glu+hypoxia (CoCl2, 5 μM; CO), HG (25 mM of D-Glucose), or HG+CO.

The conditions of assay [5]: DIRECT trial, oral treatment; cited from earlier work.
Assay [6] is described as follows: blood pressure in Ang II-induced hypertension. Type of assay: in vivo, mice. The settings on record: Ang II 3 mg/kg/day s.c., 4 weeks, vs vehicle.
For assay [7], the system named is albumin. In words: Western blot of total retinal albumin in Ang II-infused mice (retinal permeability). It is filed as in vivo. The note with it: Ang II 3 mg/kg/day s.c., 4 weeks, vs vehicle.
Description: The expression of albumin, ICAM-1 IL-6, GADPH, GLUT-1, and sEH was analyzed by homogenization of tissues or cells. Samples from mice in different treatments as well as human retinal endothelial cells (HRECs) were separated by electrophoresis for 3 h. The proteins were transferred to an enhanced chemiluminescence (ECL) membrane in a transfer buffer. The membranes were blocked for 90 min with 5% nonfat dry milk in Tris-buffered saline. The membranes were incubated with antibody against albumin (1:5000; Bethyl), ICAM-1 (1:2000; Cell Signaling), IL-6 (1:2000; Santa Cruz), GADPH (1:2000; abcam), GLUT-1 (1:10,000; abcam), or sEH (1:500; Santa Cruz). The membranes were incubated with secondary antibody for albumin, ICAM-1, IL-6, GADPH, GLUT-1, or sEH. Chemiluminescent detection using ECL reagent from Millipore Corporation was done on X-ray film. In addition, quantification of the expression levels of these proteins was analyzed with NIH image J software.
For assay [8] the following is noted: EUCLID trial, 530 participants, after two years of treatment; cited from earlier work.

For `CCCc1nc2c(C)cc(-c3nc4ccccc4n3C)cc2n1Cc1ccc(-c2ccccc2C(=O)O)cc1` [telmisartan], the “Ang II-induced sEH expression in the heart” value with sEH (heart, Ang II + telmisartan 2.5 mg/kg/day in drinking water, 4 weeks) is “attenuated”. In the assay on sEH (kidney, Ang II + telmisartan 2.5 mg/kg/day in drinking water, 4 weeks), the “Ang II-induced sEH expression in the kidney” value is “attenuated”. The “Ang II-induced retinal expression of sEH” value in the assay with sEH (retina, Ang II + telmisartan 2.5 mg/kg/day in drinking water, 4 weeks) is “reversed”.
`CCCCC/C=C\C[C@H]1O[C@H]1C/C=C\C/C=C\CCCC(=O)O` [11,12-EET]: the blood glucose levels in [1] came to 528 ± 53 mg/dL. The “intravitreal Ang II-induced retinal albumin leakage” value with albumin [2] is reported as “promoted”. The “potency in potentiating intravitreal Ang II-induced retinal damage” value in the assay on albumin [2] (comparison of the two EETs) was “more potent than 14,15-EET”. In addition, the “intravitreal Ang II-induced retinal albumin leakage in diabetic mice” value in the assay with albumin [3] is on record as “increased”. In addition, in the assay with albumin [4], the “effects of 11,12-EET on intravitreal hVEGF-induced retinal vascular leakage” value was “potentiated”. Moreover, the “GLUT-1 expression in HRECs” value with GLUT-1 was “promoted GLUT-1 expression”.
Turning to `CCOc1nc2cccc(C(=O)O)c2n1Cc1ccc(-c2ccccc2-c2nnn[nH]2)cc1` [candesartan], in [5], the “incidence of diabetic retinopathy” value is recorded as “decreased the incidence of diabetic retinopathy” and the “progression of established diabetic retinopathy” value was “did not reduce the progression of established diabetic retinopathy”.
`CCCCCC1OC1C/C=C\C/C=C\C/C=C\CCCC(=O)O` (stereo not shown) [14,15-EET]: the “intravitreal Ang II-induced retinal albumin leakage” value in the assay on albumin [2] is “promoted”. For the same molecule, in the assay on GLUT-1, the “GLUT-1 expression in HRECs” value is reported as “promoted GLUT-1 expression”.
Turning to “Ang II: angiotensin II, produced from Ang I by angiotensin-converting enzyme (DRVYIHPF; Angiotensin-2; UniProt P01019 25-32, looked up)”, the blood pressure entry in assay [6] is given as “became hypertensive”. For the same molecule, the “albumin leakage (blood retinal barrier disruption) in diabetes” value with albumin [3] (intravitreal Ang II 5 μg/1 μL, diabetic mice) is recorded as “significant increases in albumin leakage”. For the same molecule, in the assay on albumin [7], the total retinal albumin result is listed as “did not affect total retinal albumin”. Moreover, the “retinal sEH protein levels, elevation vs vehicle group” value with sEH (retina, Ang II 3 mg/kg/day s.c., 4 weeks) came to 2 fold. Also, in the assay on sEH (retina, Ang II infusion 3 mg/kg/day s.c., 4 weeks (Example 4)), the “retinal expression of sEH” value is recorded as “increased”.
`NCCCC[C@H](N[C@@H](CCc1ccccc1)C(=O)O)C(=O)N1CCC[C@H]1C(=O)O` [Lisinopril]: in assay [8], the “reduction of progression of DR” value is 50% and the “reduction of progression to proliferative DR” value was 80%.
For the molecule `C#CCOc1ccccc1CCCCCC(=O)NS(C)(=O)=O` [MS-PPOH, N-methylsulfonyl-6-(2-propargyloxyphenyl)hexanamide], the blood glucose levels in assay [1] came to 502 ± 57 mg/dL. Also, in the assay with albumin [3], the “intravitreal Ang II-induced retinal albumin leakage in diabetic mice” value is reported as “decreased”.
